Measurements from patent US20090047221A1 (NIPRI LIMITED, priority 2004, published 2009).

Tested on: cancer cell line MDA-MB-468
Assay: Combination index with known cancer drugs against proliferation (Calcusyn software)
Assay type: cell-based
Text: A combination index of less than 0.1 indicates very strong synergy; a combination index of 0.1 to 0.3 indicates strong synergism; a combination index of 0.3 to 0.7 indicates synergism; a combination index of 0.7 to 0.85 indicates moderate synergism; a combination index of 0.85 to 0.9 indicates slight synergism and a combination index of 0.9 to 1.1 indicates only very slight synergism, said combination being close to merely additive.
The combination index may be calculated using calcusyn software.
Evidence of synergy was determined by calculation of the combination index using Calcusyn software.
The MTT assay was used initially to determine the anti-proliferative activity of the test compounds. In the MTT assay a yellow thiazolyl blue tetrazolium bromide salt (MTT) is reduced, in metabolically active cells, to form insoluble purple formazan crystals which are solubilised by the addition of dimethyl sulphoxide (DMSO). Absorbance readings can then be determined spectrophotometrically and a relationship established between control untreated cells and drug treated cells enabling the quantification of anti-proliferative changes as a result of drug treatment (Mosmann, 1983).
Wells containing medium only were used as blanks. Following the attachment period, cells were treated with appropriate drug concentrations (20 μl added per well). 40 mg/ml stock drug solutions, in DMSO, were stored at −20° C. and on the day of drug treatment working solutions of 4 mg/ml were prepared in medium which was further diluted to achieve final drug dilution volumes of 20 μl. Initial screening was determined over a concentration range of 1-200 μg/ml. For potent compounds the assay was repeated over a narrower concentration range to determine accurate IC50 values. Cells were exposed to drug for 96 h continual exposure (37° C., 5% CO2). Following the 96 h incubation, 50 μl MTT solution (1 g MTT/500 ml PBS) was added per well and the plates were further incubated for 4 h (37° C., 5% CO2). After incubation the MTT and medium was removed from the wells and 100 μl DMSO added per well. Plates were agitated on an orbital mixer platform (Stuart Scientific) for 10 minutes. Absorbance was measured at 570 nm on a Biotrak II (Amersham Bioscience) plate reader. IC50 values were calculated comparing control and drug treated cells.

Measured: Combination Index

CCCCCCNC(=O)c1ccc2c(c1O)C(=O)OC(C)C2 (racemic) [ALM-49, Hexyl Amide]
0.119: Cisplatin 1 × 10^−8 mol/L, ALM compound 0.1 μg/ml
1.065: Etoposide 1 × 10^−5 mol/L, ALM compound 1.0 μg/ml
1.167: Etoposide 1 × 10^−7 mol/L, ALM compound 0.1 μg/ml
0.487: Cisplatin 1 × 10^−9 mol/L, ALM compound 0.1 μg/ml
0.715: Irinotecan 1 × 10^−3 mol/L, ALM compound 1.0 μg/ml
0.019: Irinotecan 1 × 10^−4 mol/L, ALM compound 0.5 μg/ml
0.78: Etoposide 1 × 10^−7 mol/L, ALM compound 0.5 μg/ml
0.210: Etoposide 1 × 10^−4 mol/L, ALM compound 1.0 μg/ml
0.003: Cisplatin 1 × 10^−2 mol/L, ALM compound 0.1 μg/ml
0.720: Doxorubicin 1 × 10^−5 mol/L, ALM compound 5.0 μg/ml
0.051: Cisplatin 1 × 10^−2 mol/L, ALM compound 5.0 μg/ml
0.009: Cisplatin 1 × 10^−2 mol/L, ALM compound 1.0 μg/ml
0.436: Doxorubicin 1 × 10^−5 mol/L, ALM compound 0.5 μg/ml
0.557: Irinotecan 1 × 10^−3 mol/L, ALM compound 5.0 μg/ml
0.659: Etoposide 1 × 10^−5 mol/L, ALM compound 0.5 μg/ml
0.175: Etoposide 1 × 10^−4 mol/L, ALM compound 5.0 μg/ml
0.625: Cisplatin 1 × 10^−7 mol/L, ALM compound 0.1 μg/ml
0.385: Etoposide 1 × 10^−4 mol/L, ALM compound 0.1 μg/ml
0042: Irinotecan 1 × 10^−4 mol/L, ALM compound 1.0 μg/ml
0.836: Etoposide 1 × 10^−9 mol/L, ALM compound 0.1 μg/ml
0.029: Irinotecan 1 × 10^−4 mol/L, ALM compound 0.1 μg/ml
No: Cisplatin 1 × 10^−3 mol/L, ALM compound 0.1 μg/ml | Cisplatin 1 × 10^−3 mol/L, ALM compound 0.5 μg/ml | Cisplatin 1 × 10^−3 mol/L, ALM compound 1.0 μg/ml | Cisplatin 1 × 10^−3 mol/L, ALM compound 5.0 μg/ml | Cisplatin 1 × 10^−4 mol/L, ALM compound 0.1 μg/ml | Cisplatin 1 × 10^−4 mol/L, ALM compound 0.5 μg/ml | Cisplatin 1 × 10^−4 mol/L, ALM compound 1.0 μg/ml | Cisplatin 1 × 10^−4 mol/L, ALM compound 5.0 μg/ml | Cisplatin 1 × 10^−5 mol/L, ALM compound 0.1 μg/ml | Cisplatin 1 × 10^−5 mol/L, ALM compound 0.5 μg/ml | Cisplatin 1 × 10^−5 mol/L, ALM compound 1.0 μg/ml | Cisplatin 1 × 10^−5 mol/L, ALM compound 5.0 μg/ml | Cisplatin 1 × 10^−6 mol/L, ALM compound 0.1 μg/ml | Cisplatin 1 × 10^−6 mol/L, ALM compound 0.5 μg/ml | Cisplatin 1 × 10^−6 mol/L, ALM compound 1.0 μg/ml | Cisplatin 1 × 10^−6 mol/L, ALM compound 5.0 μg/ml | Cisplatin 1 × 10^−7 mol/L, ALM compound 0.5 μg/ml | Cisplatin 1 × 10^−7 mol/L, ALM compound 1.0 μg/ml | Cisplatin 1 × 10^−7 mol/L, ALM compound 5.0 μg/ml | Cisplatin 1 × 10^−8 mol/L, ALM compound 0.5 μg/ml | Cisplatin 1 × 10^−8 mol/L, ALM compound 1.0 μg/ml | Cisplatin 1 × 10^−8 mol/L, ALM compound 5.0 μg/ml | Cisplatin 1 × 10^−9 mol/L, ALM compound 0.5 μg/ml | Cisplatin 1 × 10^−9 mol/L, ALM compound 1.0 μg/ml | Cisplatin 1 × 10^−9 mol/L, ALM compound 5.0 μg/ml | Doxorubicin 1 × 10^−4 mol/L, ALM compound 0.1 μg/ml | Doxorubicin 1 × 10^−4 mol/L, ALM compound 0.5 μg/ml | Doxorubicin 1 × 10^−4 mol/L, ALM compound 1.0 μg/ml | Etoposide 1 × 10^−6 mol/L, ALM compound 0.1 μg/ml | Etoposide 1 × 10^−6 mol/L, ALM compound 1.0 μg/ml | Etoposide 1 × 10^−6 mol/L, ALM compound 5.0 μg/ml | Etoposide 1 × 10^−7 mol/L, ALM compound 1.0 μg/ml | Etoposide 1 × 10^−7 mol/L, ALM compound 5.0 μg/ml | Etoposide 1 × 10^−8 mol/L, ALM compound 0.1 μg/ml | Etoposide 1 × 10^−8 mol/L, ALM compound 0.5 μg/ml | Etoposide 1 × 10^−8 mol/L, ALM compound 1.0 μg/ml | Etoposide 1 × 10^−8 mol/L, ALM compound 5.0 μg/ml | Etoposide 1 × 10^−9 mol/L, ALM compound 0.5 μg/ml | Etoposide 1 × 10^−9 mol/L, ALM compound 1.0 μg/ml | Etoposide 1 × 10^−9 mol/L, ALM compound 5.0 μg/ml | Etoposide 1 × 10^−10 mol/L, ALM compound 0.5 μg/ml | Etoposide 1 × 10^−10 mol/L, ALM compound 1.0 μg/ml | Etoposide 1 × 10^−10 mol/L, ALM compound 5.0 μg/ml | Irinotecan 1 × 10^−3 mol/L, ALM compound 0.1 μg/ml | Irinotecan 1 × 10^−5 mol/L, ALM compound 0.1 μg/ml | Irinotecan 1 × 10^−5 mol/L, ALM compound 0.5 μg/ml | Irinotecan 1 × 10^−5 mol/L, ALM compound 1.0 μg/ml | Irinotecan 1 × 10^−5 mol/L, ALM compound 5.0 μg/ml | Irinotecan 1 × 10^−6 mol/L, ALM compound 0.1 μg/ml | Irinotecan 1 × 10^−6 mol/L, ALM compound 0.5 μg/ml | Irinotecan 1 × 10^−6 mol/L, ALM compound 1.0 μg/ml | Irinotecan 1 × 10^−6 mol/L, ALM compound 5.0 μg/ml | Irinotecan 1 × 10^−7 mol/L, ALM compound 0.1 μg/ml | Irinotecan 1 × 10^−7 mol/L, ALM compound 0.5 μg/ml | Irinotecan 1 × 10^−7 mol/L, ALM compound 1.0 μg/ml | Irinotecan 1 × 10^−7 mol/L, ALM compound 5.0 μg/ml | Irinotecan 1 × 10^−8 mol/L, ALM compound 0.1 μg/ml | Irinotecan 1 × 10^−8 mol/L, ALM compound 0.5 μg/ml | Irinotecan 1 × 10^−8 mol/L, ALM compound 1.0 μg/ml | Irinotecan 1 × 10^−8 mol/L, ALM compound 5.0 μg/ml | Irinotecan 1 × 10^−9 mol/L, ALM compound 0.1 μg/ml | Irinotecan 1 × 10^−9 mol/L, ALM compound 0.5 μg/ml | Irinotecan 1 × 10^−9 mol/L, ALM compound 1.0 μg/ml | Irinotecan 1 × 10^−9 mol/L, ALM compound 5.0 μg/ml | Irinotecan 1 × 10^−10 mol/L, ALM compound 0.1 μg/ml | Irinotecan 1 × 10^−10 mol/L, ALM compound 0.5 μg/ml | Irinotecan 1 × 10^−10 mol/L, ALM compound 1.0 μg/ml | Irinotecan 1 × 10^−10 mol/L, ALM compound 5.0 μg/ml
0.968: Doxorubicin 1 × 10^−4 mol/L, ALM compound 5.0 μg/ml
0.806: Etoposide 1 × 10^−6 mol/L, ALM compound 0.5 μg/ml
0.606: Irinotecan 1 × 10^−3 mol/L, ALM compound 0.5 μg/ml
0.438: Doxorubicin 1 × 10^−5 mol/L, ALM compound 1.0 μg/ml
0.410: Doxorubicin 1 × 10^−5 mol/L, ALM compound 0.1 μg/ml
0.941: Etoposide 1 × 10^−5 mol/L, ALM compound 5.0 μg/ml
1.184: Etoposide 1 × 10^−5 mol/L, ALM compound 0.1 μg/ml
0.002: Cisplatin 1 × 10^−2 mol/L, ALM compound 0.5 μg/ml
0.344: Etoposide 1 × 10^−10 mol/L, ALM compound 0.1 μg/ml
0.042: Irinotecan 1 × 10^−4 mol/L, ALM compound 5.0 μg/ml
0.234: Etoposide 1 × 10^−4 mol/L, ALM compound 0.5 μg/ml
